Results on two compounds are retold here after US8338468B2, “Microbicidal composition” (ISP Investments Inc., priority 2005, dated 2012).

Common to all, as to experiment: Synergy test (MIC) in Ringer's Solution
Type in all cases: cell-based

Test [1] has as its system Aspergillus niger. Particulars: 30° C., about 10^5 microbes per ml; for MIC: Aspergillus niger. Here is the method: (§1) Synergy tests were conducted using microbiological standard methods. Ringer's Solution (Merck, VWR) was used for testing bacteria, yeast and mould species. In jars 100 ml aliquots of sterile Ringer Solution are dosed with the preservatives and a known inoculum of the single test species is added. A control sample containing no preservative is also used to ascertain the biocide effect on the inoculum. The prepared jars were incubated at 30° C. Aliquots are streaked out at regular intervals on specific nutrient agar so that an estimate of kill time can be determined at the same time as effective concentration. TSA (tryptic soy agar) was used for bacteria; MEA (malt extract agar) was used for yeast and moulds. The plates were visually evaluated for microbial growth to determine the MIC after various incubation times at 30° C. The synergy of the combinations of the present invention was determined against four bacteria, Pseudomonas aeruginosa, Escherichia coli, Proteus Mirabilis, and Staphylococcus aureus, a yeast, Candida albicans and two moulds Trichoderma viride and Aspergillus niger. The single micro-organisms were used at a concentration of about 10^5 microbes per ml. these micro-organisms are standard reference organisms and representative of natural contaminants in many consumer and industrial applications. […] In each test first component (A) was MIT and the second component was phenylethylalcohol (B).

Test [2] concerns Trichoderma viride. Conditions: 30° C., about 10^5 microbes per ml; for MIC: Trichoderma viride. Here is the method:
as §1

Test [3] concerns Pseudomonas aeruginosa. Conditions: 30° C., about 10^5 microbes per ml; for MIC: Pseudomonas aeruginosa. Here is the method:
as §1

Test [4] deals with Staphylococcus aureus. Conditions: 30° C., about 10^5 microbes per ml; for MIC: Staphylococcus aureus. Here is the method: as §1
For test [5], the system named is Candida albicans. Particulars: 30° C., about 10^5 microbes per ml; for MIC: Candida albicans. Here is the method:
as §1

For test [6], the system named is Escherichia coli. Conditions: 30° C., about 10^5 microbes per ml; for MIC: Escherichia coli. Here is the method: as §1
Test [7] relates to Proteus Mirabilis. Particulars: 30° C., about 10^5 microbes per ml; for MIC: Proteus mirabilis. As to the method: as §1
Setting [8] is: MIT alone, Test 1 single, Test 2.1-2.3 parallel samples, read-out: QA, ppm MIT acting alone, which produced an end point (MIC).
[9] abbreviates: MIT alone, Test 1 single, Test 2.1-2.3 parallel samples.
Setting [10] is: phenylethylalcohol alone, read-out: QB, ppm phenylethylalcohol acting alone, which produced an end point (MIC).

“And” between values parts separate entries of the source, which are not always exact repeats. Equal values may be shown once. Read-outs that look alike come from different tables or passages of the source.

A word on the MIC: it is the lowest concentration found to suppress growth. Take `Cn1sccc1=O` [MIT, 2-methyl-3-isothiazolone]: the MIC in test [1] (setting [8]) came to 50 µg/mL; in test [2] (setting [8]), 75 µg/mL; in test [3] (setting [8]), 50 µg/mL; in test [4] (setting [8]), 75 µg/mL; in test [5] (setting [8]) it was 50 µg/mL; in test [6] (setting [8]), 25 µg/mL. The minimal inhibitory concentration (MIC) in test [7] (setting [8]) turned out to be 50 µg/mL. Also, the “QA, ppm MIT acting alone, which produced an end point (MIC)” value in test [2] (setting [9]) is listed as 50 ppm; in test [3] (setting [9]) it was 25 ppm; in test [4] (setting [9]), 50 ppm; in test [6] (setting [9]), 50 ppm; in test [7] (setting [9]) it was 25 ppm.
Turning to `OCCc1ccccc1` [phenylethylalcohol], the minimal inhibitory concentration (MIC) in test [1] (setting [10]) is 1500 µg/mL; in test [2] (setting [10]), 2000 µg/mL; in test [3] (setting [10]) it was 2000 µg/mL; in test [4] (setting [10]), 2000 µg/mL; in test [5] (setting [10]), 2000 µg/mL; in test [6] (setting [10]) it was 2500 µg/mL. Moreover, the minimum inhibitory concentration (MIC) in test [7] (setting [10]) was 2000 µg/mL. Moreover, the “QB, ppm phenylethylalcohol acting alone, which produced an end point (MIC)” value is 2000 ppm in test [1] (phenylethylalcohol alone); 3000 ppm in test [2] (phenylethylalcohol alone); 2500 ppm in test [3] (phenylethylalcohol alone); 1500 ppm in test [4] (phenylethylalcohol alone); 2500 ppm and 1500 ppm in test [5] (phenylethylalcohol alone); 2000 ppm in test [6] (phenylethylalcohol alone).
